Experimental data published in patent US20110045101A1, “FUNGICIDAL SUBSTITUTED AZOLES” (E.I. Du Pont De Nemours and Company, priority 2009, published 2011).
Marks after values point to notes of the source that are not given here.

Experiments:
Format in all cases: in vivo
[1] = test system: Erysiphe graminis f. sp. tritici; assay: Test J: wheat powdery mildew on wheat seedlings, sprayed the day before inoculation, visual disease rating; conditions: 100 = 100% disease control; for pest or weed control at 200 ppm: Blumeria graminis, 168 h
How it was run: (§1)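 Compounds were dissolved in acetone (3% of final volume), then suspended in 50/50 acetone/water with 250 ppm Trem 014 surfactant and sprayed to run-off on test plants. A 200 ppm suspension equals 500 g/ha. Ratings are at 200 ppm unless flagged as 40 ppm.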

[2] = test system: Septoria nodorum; assay: Test F: wheat glume blotch on wheat seedlings, sprayed the day before inoculation, visual disease rating; conditions: 100 = 100% disease control; for pest or weed control at 200 ppm: Parastagonospora nodorum, 264 h
How it was run: as §1

[3] = test system: Botrytis cinerea; assay: Test C: tomato Botrytis on tomato seedlings, sprayed the day before inoculation, visual disease rating; conditions: 100 = 100% disease control; for pest or weed control at 200 ppm: Botrytis cinerea, 120 h
How it was run: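 Tomato seedlings sprayed to run-off with compound suspended in acetone/water with 250 ppm Trem 014 surfactant, at 200 ppm (≈500 g/ha) or 40 ppm where marked, one day before Botrytis cinerea inoculation. Disease rated visually.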

[4] = test system: Puccinia recondita f. sp. tritici; assay: Test H: wheat leaf rust, test suspension sprayed after inoculation of wheat seedlings, visual disease rating; conditions: 100 = 100% disease control; for pest or weed control at 200 ppm: Puccinia recondita, 96 h
How it was run: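 Wheat seedlings inoculated with P. recondita spores, held 24 h saturated at 20 °C, then 2 days in growth chamber at 20 °C; compound suspension (acetone/water with Trem 014) sprayed to run-off afterwards. Rated visually; 200 ppm (≈500 g/ha) unless marked *, which denotes 40 ppm.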

[5] = test system: Septoria tritici; assay: Test G: wheat leaf blotch on wheat seedlings, sprayed the day before inoculation, visual disease rating; conditions: 100 = 100% disease control; for pest or weed control at 200 ppm: Zymoseptoria tritici, 504 h
How it was run: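 Wheat seedlings were sprayed with compound suspensions, 200 ppm unless starred (40 ppm). After next-day spore inoculation, plants spent 48 h saturated at 24° C, then 19 days at 20° C, when disease was rated visually.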

[6] = test system: Puccinia recondita f. sp. tritici; assay: Test I: wheat leaf rust on wheat seedlings, sprayed the day before inoculation, visual disease rating; conditions: 100 = 100% disease control; for pest or weed control at 200 ppm: Puccinia recondita, 168 h
How it was run: as §1

[7] = test system: Alternaria solani; assay: Test D: tomato early blight, sprayed the day before inoculation, visual disease rating; conditions: 100 = 100% disease control; for pest or weed control at 200 ppm: Alternaria solani, 168 h
How it was run: as §1

[8] = 200 ppm, 0 = no control relative to controls
[9] = 40 ppm (marked *), 0 = no control

SMILES | Test J disease control rating [1, 8] | Test F disease control rating [2, 8] | Test C disease control rating [3, 8] | Test H disease control rating [4, 8] | Test G disease control rating [5, 8] | Test I disease control rating [6, 8] | Test D disease control rating [7, 8] | also measured
Cc1ccc(-n2cnc(Br)c2-c2c(F)ccc(F)c2F)cc1 [compound 411] | 100% | 0% | 100% | 0% | 99% | 99% | 100% | –
Fc1cc(-n2c(Cl)nc(Cl)c2-c2cnc3ccccc3c2)ccc1Cl [compound 436] | 0% | 0% | 87% | 0% | 81% | 0% | 98% | –
Cc1ccc(-n2c(Cl)nc(Br)c2-c2c(F)ccc(F)c2Cl)cc1 [compound 464] | – | – | – | – | – | – | – | Test J disease control rating ([1]; 40 ppm (marked *)): 100* %; Test F disease control rating ([2]; 40 ppm (marked *)): 0* %; Test C disease control rating ([3]; 40 ppm (marked *)): 99* %; Test H disease control rating ([4]; 40 ppm (marked *)): 0* %; Test G disease control rating ([5]; 40 ppm (marked *)): 72* %; Test I disease control rating ([6]; 40 ppm (marked *)): 99* %; Test D disease control rating ([7]; 40 ppm (marked *)): 89* %
CNC(=O)Cc1nc(Br)c(-c2c(F)cccc2F)n1-c1ccc(Cl)cc1 [Compound 571, 4-bromo-1-(4-chlorophenyl)-5-(2,6-difluorophenyl)-N-methyl-1H-imidazole-2-acetamide] | – | – | – | – | – | – | – | pest or weed control at 200 ppm [1, 8]: 0%; pest or weed control at 200 ppm [2, 8]: 0%; pest or weed control at 200 ppm [3, 8]: 33%; pest or weed control at 200 ppm [4, 8]: 0%; pest or weed control at 200 ppm [5, 8]: 82%; pest or weed control at 200 ppm [6, 8]: 90%; pest or weed control at 200 ppm [7, 8]: 0%
COc1ccc(F)c(-c2c(Cl)nc(C)n2-c2cccc(OC(F)F)c2)c1F [compound 426] | 100% | 100% | 100% | 27% | 100% | 100% | 100% | –
Cc1ncn(-c2ccc(Cl)c(F)c2)c1-c1cncc(Br)c1 [compound 346] | 0% | 0% | 99% | 9% | 38% | 9% | 0% | –
COc1ccc(F)c(-c2c(Cl)nc(C)n2-c2cccc(C)c2)c1F [compound 335] | – | – | – | – | – | – | – | Test J disease control rating [1, 9]: 99* %; Test F disease control rating [2, 9]: 82* %; Test C disease control rating [3, 9]: 100* %; Test H disease control rating [4, 9]: 0* %; Test G disease control rating [5, 9]: 91* %; Test I disease control rating [6, 9]: 99* %; Test D disease control rating [7, 9]: 100* %
CCOc1ccc(F)c(-c2c(Cl)nc(Cl)n2-c2ccc(Cl)cc2)c1F [compound 664] | 100% | 96% | 100% | 46% | 99% | 97% | 99% | –
CCOc1cc(F)c(-c2c(Cl)ncn2-c2ccc(F)cc2)c(F)c1 [compound 702] | 99% | 99% | 100% | 59% | 99% | 86% | 100% | –
COc1cc(F)c(-c2c(C)nc(C)n2-c2ccc(F)cc2)c(F)c1 [compound 522] | – | – | – | – | – | – | – | Test J disease control rating ([1]; 40 ppm (marked *)): 96* %; Test F disease control rating ([2]; 40 ppm (marked *)): 0* %; Test C disease control rating ([3]; 40 ppm (marked *)): 100* %; Test H disease control rating ([4]; 40 ppm (marked *)): 0* %; Test G disease control rating ([5]; 40 ppm (marked *)): 98* %; Test I disease control rating ([6]; 40 ppm (marked *)): 99* %; Test D disease control rating ([7]; 40 ppm (marked *)): 100* %
Cc1ncc(Cc2ccc(F)cc2F)n1-c1ccc(Cl)cc1 [compound 403] | 86% | 0% | 99% | 0% | 97% | 77% | 0% | –
Cc1nc(Cl)n(-c2ccc(F)cc2Cl)c1-c1ccc(Cl)cc1 [compound 503] | 100% | 99% | 99% | 0% | 96% | 100% | 99% | –
COc1cc(F)c(-c2c(Cl)nc(Br)n2-c2ccc(F)c(F)c2)c(F)c1 [compound 484] | 100% | 89% | 100% | 28% | 95% | 100% | 100% | –
COc1cc(F)c(-c2c(Cl)nc(C)n2Cc2ccc(C)cc2)c(F)c1 [compound 296] | – | – | – | – | – | – | – | Test J disease control rating ([1]; 200 ppm, 0 = no control): 97%; Test F disease control rating ([2]; 200 ppm, 0 = no control): 86%; Test C disease control rating ([3]; 200 ppm, 0 = no control): 100%; Test H disease control rating ([4]; 200 ppm, 0 = no control): 17%; Test G disease control rating ([5]; 200 ppm, 0 = no control): 96%; Test I disease control rating ([6]; 200 ppm, 0 = no control): 99%; Test D disease control rating ([7]; 200 ppm, 0 = no control): 96%
COc1cc(F)c(-c2c(Cl)nc(Cl)n2-c2ccc(OC)nc2Cl)c(F)c1 [compound 515] | 100% | 0% | 97% | 100% | 100% | 100% | 99% | –
N#Cc1ccc(F)c(-c2c(Cl)nc(Br)n2-c2ccc(Cl)nc2)c1F [compound 701] | 95% | 91% | 100% | 7% | 99% | 100% | 100% | –
Fc1cccc(-n2c(Cl)nc(Cl)c2-c2c(F)ccc(F)c2F)c1 [compound 366] | 97% | 64% | 100% | 41% | 91% | 99% | 100% | –
Cc1ccc(-n2c(C)nc(Cl)c2-c2c(F)cc(O)cc2F)cc1 [Compound 624, 4-[4-chloro-2-methyl-1-(4-methylphenyl)-1H-imidazol-5-yl]-3,5-difluorophenol] | – | – | – | – | – | – | – | pest or weed control at 200 ppm [1, 8]: 90%; pest or weed control at 200 ppm [2, 8]: 0%; pest or weed control at 200 ppm [3, 8]: 99%; pest or weed control at 200 ppm [4, 8]: 0%; pest or weed control at 200 ppm [5, 8]: 94%; pest or weed control at 200 ppm [6, 8]: 99%; pest or weed control at 200 ppm [7, 8]: 64%
